Measurements: patent US20150065343A1, “Acrylamide compounds for combating invertebrate pests” (priority 2012, published 2015)

How the values were obtained:
Assay type in all cases: in vivo
[1] = test system: Boll weevil (Anthonomus grandis); test: B.10 Boll weevil microtiter plate test on insect diet with eggs; details: 120 h, sprayed onto insect diet at 20 μl, egg and larval mortality after 5 days, read-out: mortality in comparison with untreated controls
Description: B.10 Boll weevil (Anthonomus grandis)
For evaluating control of boll weevil (Anthonomus grandis) the test unit consisted of 24-well-microtiter plates containing an insect diet and 20-30 A. grandis eggs.
The compounds were formulated using a solution containing 75% v/v water and 25% v/v DMSO. Different concentrations of formulated compounds were sprayed onto the insect diet at 20 μl, using a custom built micro atomizer, at two replications.
After application, microtiter plates were incubated at about 23±1° C. and about 50±5% relative humidity for 5 days. Egg and larval mortality was then visually assessed.

[2] = test system: Silverleaf whitefly (bernisia argentifolii); test: B.6 Silverleaf whitefly spray test on cotton plants; details: Bemisia argentifolii, 72 h, sprayed cotton plants, whitefly adults, 3 days after treatment, read-out: mortality in comparison with untreated controls
Excerpt: B.6 Silverleaf whitefly (bernisia argentifolii)
(§1) The active compounds were formulated in cyclohexanone as a 10,000 ppm solution supplied in tubes. The tubes were inserted into an automated electrostatic sprayer equipped with an atomizing nozzle and they served as stock solutions for which lower dilutions were made in 50% acetone:50% water (v/v). A nonionic surfactant (Kinetic®) was included in the solution at a volume of 0.01% (v/v).
Cotton plants at the cotyledon stage (one plant per pot) were sprayed by an automated electrostatic plant sprayer equipped with an atomizing spray nozzle. The plants were dried in the sprayer fume hood and then removed from the sprayer. Each pot was placed into a plastic cup and about 10 to 12 whitefly adults (approximately 3-5 days old) were introduced. The insects were collected using an aspirator and a nontoxic Tygon® tubing connected to a barrier pipette tip. The tip, containing the collected insects, was then gently inserted into the soil containing the treated plant, allowing insects to crawl out of the tip to reach the foliage for feeding. Cups were covered with a reusable screened lid. […] Mortality was assessed 3 days after treatment, compared to untreated control plants.

[3] = test system: Southern armyworm (Spodoptera eridania); test: B.7 Southern armyworm spray test on lima bean plants; details: foliar, 96 h, sprayed lima bean foliage, armyworm larvae, 4 days after treatment, read-out: mortality in comparison with untreated controls
Description: B.7 Southern armyworm (Spodoptera eridania)
as §1
Lima bean plants (variety Sieva) were grown 2 plants to a pot and selected for treatment at the 1st true leaf stage. Test solutions were sprayed onto the foliage by an automated electrostatic plant sprayer equipped with an atomizing spray nozzle. The plants were dried in the sprayer fume hood and then removed from the sprayer. Each pot was placed into perforated plastic bags with a zip closure. About 10 to 11 armyworm larvae were placed into the bag and the bags zipped closed. Test plants were maintained in a growth room at about 25° C. and about 20-40% relative humidity for 4 days, avoiding direct exposure to fluorescent light (24 hour photoperiod) to prevent trapping of heat inside the bags. Mortality and reduced feeding were assessed 4 days after treatment, compared to untreated control plants.

[4] = test system: Vetch aphid (Megoura viciae); test: B.8 Vetch aphid test on broad bean leaf disks in 24-well plates; details: foliar, 120 h, sprayed onto leaf disks at 2.5 μl, adult aphids, 5 days, read-out: mortality in comparison with untreated controls
Description: B.8 Vetch aphid (Megoura viciae)
For evaluating control of vetch aphid (Megoura viciae) through contact or systemic means the test unit consisted of 24-well-microtiter plates containing broad bean leaf disks.
The compounds were formulated using a solution containing 75% v/v water and 25% v/v DMSO. Different concentrations of formulated compounds were sprayed onto the leaf disks at 2.5 μl, using a custom built micro atomizer, at two replications.
After application, the leaf disks were air-dried and 5-8 adult aphids placed on the leaf disks inside the microtiter plate wells. The aphids were then allowed to suck on the treated leaf disks and incubated at about 23±1° C. and about 50±5% relative humidity for 5 days. Aphid mortality and fecundity was then visually assessed.

[5] = test system: Green peach aphid (Myzus persicae); test: B.3 Green peach aphid systemic test, artificial diet in 96-well plates; details: 72 h, adult aphids, 3 days, read-out: mortality in comparison with untreated controls
Excerpt: B.3 Green peach aphid (Myzus persicae)
For evaluating control of green peach aphid (Myzus persicae) through systemic means the test unit consisted of 96-well-microtiter plates containing liquid artificial diet under an artificial membrane.
The compounds were formulated using a solution containing 75% v/v water and 25% v/v DMSO. Different concentrations of formulated compounds were pipetted into the aphid diet, using a custom built pipetter, at two replications.
After application, 5-8 adult aphids were placed on the artificial membrane inside the microtiter plate wells. The aphids were then allowed to suck on the treated aphid diet and incubated at about 23+1° C. and about 50+5% relative humidity for 3 days. Aphid mortality and fecundity was then visually assessed.

[6] = test system: Mediterranean fruitfly (Ceratitis capitata); test: B.4 Mediterranean fruitfly microtiter plate test on insect diet with eggs; details: 120 h, sprayed onto insect diet at 5 μl, egg and larval mortality after 5 days, read-out: mortality in comparison with untreated controls
Description: B.4 Mediterranean fruitfly (Ceratitis capitata)
For evaluating control of Mediterranean fruitfly (Ceratitis capitata) the test unit consisted of microtiter plates containing an insect diet and 50-80 C. capitate eggs.
The compounds were formulated using a solution containing 75% v/v water and 25% v/v DMSO. Different concentrations of formulated compounds were sprayed onto the insect diet at 5 μl, using a custom built micro atomizer, at two replications.
(§2) After application, microtiter plates were incubated at about 28±1° C. and about 80±5% relative humidity for 5 days. Egg and larval mortality was then visually assessed.

[7] = test system: Diamond back moth (Plutella xylostella); test: B.2 Diamond back moth leaf-dip test on Chinese cabbage; details: dipped Chinese cabbage leaves, mortality recorded 24, 72 and 120 hours after treatment, read-out: mortality in comparison with untreated controls
Description: B.2 Diamond back moth (Plutella xylostella)
Leaves of Chinese cabbage were dipped in test solution and air-dried. Treated leaves were placed in petri dished lined with moist filter paper. Mortality was recorded 24, 72, and 120 hours after treatment.

[8] = test system: Orchid thrips (dichromothrips corbetti); test: B.5 Orchid thrips floral-immersion test; details: 96 h, adult thrips, after 4 days, read-out: mortality in comparison with untreated controls
Description: B.5 Orchid thrips (dichromothrips corbetti)
Dichromothaps corbetti adults used for bioassay were obtained from a colony maintained continuously under laboratory conditions. For testing purposes, the test compound was diluted to a concentration of 500 ppm (wt compound: vol diluent) in a 1:1 mixture of acetone:water (vol:vol), plus 0.01% vol/vol Kinetic® surfactant.
Thrips potency of each compound was evaluated by using a floral-immersion technique. Plastic petri dishes were used as test arenas. All petals of individual, intact orchid flowers were dipped into treatment solution and allowed to dry. Treated flowers were placed into individual petri dishes along with 10-15 adult thrips. The petri dishes were then covered with lids. All test arenas were held under continuous light and a temperature of about 28° C. for duration of the assay. After 4 days, the numbers of live thrips were counted on each flower, and along inner walls of each petri dish. The level of thrips mortality was extrapolated from pre-treatment thrips numbers.

[9] = test system: Tobacco budworm (Heliothis virescens); test: B.9 Tobacco budworm microtiter plate test on insect diet with eggs; details: 120 h, sprayed onto insect diet at 10 μl, egg and larval mortality after 5 days, read-out: mortality in comparison with untreated controls
Description: B.9 Tobacco budworm (Heliothis virescens) HELVI
For evaluating control of tobacco budworm (Heliothis virescens) the test unit consisted of 96-well-microtiter plates containing an insect diet and 15-25 H. virescens eggs.
The compounds were formulated using a solution containing 75% v/v water and 25% v/v DMSO. Different concentrations of formulated compounds were sprayed onto the insect diet at 10 μl, using a custom built micro atomizer, at two replications.
as §2

CNC(=O)N/N=C/c1sc(/C=C/C(=O)NC(c2cccc(C(F)(F)F)c2)C(F)(F)F)cc1C (centres unmarked) [Compound 1-1, (E)-3-[4-methyl-5-[(E)-(methylcarbamoylhydrazono)methyl]-2-thienyl]-N-[2,2,2-trifluoro-1-[3-(trifluoromethyl)phenyl]ethyl]prop-2-enamide]
≥ 75%: mortality at 2500 ppm [1] | mortality at 300 ppm [2] | mortality at 300 ppm [3] | mortality at 2500 ppm [4] | mortality at 2500 ppm [5] | mortality at 2500 ppm [6] | mortality at 500 ppm [7] | mortality at 500 ppm [8] | mortality at 2500 ppm [9]

Cc1cc(/C=C/C(=O)NC(c2cccc(C(F)(F)F)c2)C(F)(F)F)sc1C(=O)NC1CC1 (centres unmarked) [Compound 2-1, N-cyclopropyl-3-methyl-5-[(E)-3-oxo-3-[[2,2,2-trifluoro-1-[3-(trifluoromethyl)phenyl]-ethyl]amino]prop-1-enyl]thiophene-2-carboxamide]
≥ 75%: mortality at 2500 ppm [1] | mortality at 300 ppm [3] | mortality at 2500 ppm [4] | mortality at 2500 ppm [5] | mortality at 2500 ppm [6] | mortality at 500 ppm [7] | mortality at 500 ppm [8] | mortality at 2500 ppm [9]

CCN(Cc1sc(/C=C/C(=O)NC(c2cccc(C(F)(F)F)c2)C(F)(F)F)cc1C)C(=O)CS(C)(=O)=O (centres unmarked) [Compound 3-1, (E)-3-[5-[[Ethyl-(2-methylsulfonylacetyl)amino]methyl]-4-methyl-2-thienyl]-N-[2,2,2-trifluoro-1-[3-(trifluoromethyl)phenyl]ethyl]prop-2-enamide]
≥ 75%: mortality at 2500 ppm [1] | mortality at 300 ppm [3] | mortality at 2500 ppm [5] | mortality at 500 ppm [8]

CSCC(=O)NCc1sc(/C=C/C(=O)NC(c2cccc(C(F)(F)F)c2)C(F)(F)F)cc1C (centres unmarked) [Compound 3-6, (E)-3-[4-Methyl-5-[[(2-methylsulfanylacetyl)amino]methyl]-2-thienyl]-N-[2,2,2-trifluoro-1-[3-(trifluoromethyl)phenyl]ethyl]prop-2-enamide]
≥ 75%: mortality at 2500 ppm [1] | mortality at 2500 ppm [5] | mortality at 500 ppm [8]

Cc1sc(/C=C/C(=O)NC(c2cccc(C(F)(F)F)c2)C(F)(F)F)cc1C(=O)NC1CC1 (centres unmarked) [Compound 4-1, N-Cyclopropyl-2-methyl-5-[(E)-3-oxo-3-[[2,2,2-trifluoro-1-[3-(trifluoromethyl)phenyl]-ethyl]amino]prop-1-enyl]thiophene-3-carboxamide]
≥ 75%: mortality at 2500 ppm [1] | mortality at 300 ppm [2] | mortality at 300 ppm [3] | mortality at 2500 ppm [5] | mortality at 2500 ppm [6]
